According to PubChem BioAssay (NCI):
Values joined by “and” are separate entries in the source; they are usually repeats but may differ in a detail not shown here. Equal entries are not always repeated.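 Protocol summary: plate cells (96-well), add compound at 5 concentrations, incubate 48 h, interpolate endpoints linearly. GI50 marks 50% less growth. TGI is the concentration that stops growth completely.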

What was measured:
Experiment in all cases: growth of human tumour cells (NCI), 48 h
HOP-62 NSCLC = system: HOP-62 NSCLC
A549 NSCLC = system: A549 NSCLC
CAKI-1 renal = system: CAKI-1 renal
SN12C renal = system: SN12C renal
MALME-3M melanoma = system: MALME-3M melanoma
TK-10 renal = system: TK-10 renal
HCT-15 colon = system: HCT-15 colon
SK-OV-3 ovarian = system: SK-OV-3 ovarian
T-47D breast = system: T-47D breast
NCI/ADR-RES ovarian = system: NCI/ADR-RES ovarian
MDA-MB-435 = system: MDA-MB-435
RXF 393 renal = system: RXF 393 renal

Row | SMILES | TGI (HOP-62 NSCLC) [µM] | TGI (A549 NSCLC) | TGI (CAKI-1 renal) | TGI (SN12C renal) | TGI (MALME-3M melanoma) | TGI (TK-10 renal) | TGI (HCT-15 colon) | TGI (SK-OV-3 ovarian) [µM] | TGI (T-47D breast) | TGI (NCI/ADR-RES ovarian) [µM] | TGI (MDA-MB-435) | TGI (RXF 393 renal) [µM] | GI50 (CAKI-1 renal) | GI50 (NCI/ADR-RES ovarian) [µM] | GI50 (MALME-3M melanoma) [µM] | GI50 (TK-10 renal) [µM] | GI50 (HCT-15 colon) [µM] | GI50 (SK-OV-3 ovarian) [µM] | GI50 (RXF 393 renal) [µM]
1 | OCC1O[C@H](O[C@@H]2CCCN3CC(O)C(O)[C@@H]23)C(O)C(O)C1O (stereo not given in full) | > 100 | > 100 µM | > 100 µM | > 100 µM | > 100 µM | > 100 µM | > 100 µM | > 100 |  |  |  |  |  |  |  |  |  |  | 
2 | Nc1nc(Nc2ccc(Cl)c(Cl)c2)nc2nc[nH]c12 | 26.1 | 33.6 µM | 25.1 µM | 44.6 µM | 32.5 µM | 28.3 µM | 37.2 µM | 31.8 | 25.1 µM | 38.3 | 32 µM | 20.1 |  |  |  |  |  |  | 
3 | N#C/C(=C\c1ccncc1)c1csc2ccccc12 | 63.3 | > 100 µM | > 88 µM | > 74.8 µM | > 96.2 µM |  | 77.4 µM | > 73.1 |  | 61.8 |  | > 83.1 |  |  |  |  |  |  | 
4 | CN(C)CCNc1ccc2ncn3c4ccccc4c(=O)c1c23 | 19.4 | 5.79 µM | 12.9 µM | 38.4 µM | 10.2 µM | 46.7 µM | 13.9 µM | 16.2 |  |  |  |  |  |  |  |  |  |  | 
5 | CCCCCC(=O)N[C@@H](c1ccco1)[C@@H](O)C(=O)O[C@H]1C[C@@]2(O)[C@@H](OC(=O)c3ccccc3)[C@@H]3[C@]4(OC(C)=O)CO[C@@H]4C[C@H](O)[C@@]3(C)C(=O)[C@H](OC(C)=O)C(=C1C)C2(C)C | > 25 |  |  |  |  | 18.2 µM | > 25 µM | > 25 |  | > 25 |  |  | 0.329 µM | 0.617 | 0.000357 | 0.0275 | 0.0396 | 0.00163 | 0.000206
6 | O=C(Nc1ccc([N+](=O)[O-])cc1)Nn1cnnc1 | > 100 | > 100 µM | > 100 µM |  | 80 µM | > 100 µM | > 100 µM | > 100 | > 100 µM |  | > 100 µM |  |  |  |  |  |  |  | 
7 | O=C1OC(c2ccccc2)=NC1c1ccccc1 (stereo not given) | > 100 | > 100 µM | > 100 µM | > 100 µM |  | > 100 µM | > 100 µM | > 100 | > 100 µM | > 100 | > 100 µM | > 100 |  |  |  |  |  |  | 
8 | C[N+](C)(CCCCCC[N+](C)(C)CCCN1C(=O)c2cccc3cccc(c23)C1=O)CCCN1C(=O)c2cccc3cccc(c23)C1=O |  | > 100 µM | > 100 µM | > 100 µM | > 100 µM | > 100 µM | > 100 µM | > 100 | > 100 µM | > 100 | > 100 µM | > 100 |  |  |  |  |  |  | 
9 | O=C1C(Cl)N(c2c(Cl)cccc2Cl)C1c1c[nH]c2ccccc12 (stereo not given) | > 100 | > 100 µM |  | > 100 µM | > 100 µM | > 100 µM |  | > 100 |  |  |  | > 100 |  |  |  |  |  |  | 
10 | CCNC(=O)C(C)C1CCC2(C)C=CC(=O)C(C)=C2C1O (stereo not given) | > 100 | > 100 µM | > 100 µM | > 100 µM |  |  | > 100 µM | > 100 |  | > 100 |  | > 100 |  |  |  |  |  |  | 
11 | CC(C)=CCCC(C)(OC1OC(CO)C(O)C(O)C1O)C1CCC2(C)C1C(O)CC1C3(C)CCC(O)C(C)(C)C3C(OC3OC(CO)C(O)C(O)C3OC3OC(C)C(O)C(O)C3O)CC12C (stereo not given) (tested in a mixture with another compound) | > 75 | > 75 µM | > 75 µM | > 75 µM |  | > 75 µM | > 75 µM | > 75 | > 75 µM | > 75 | > 75 µM |  |  |  |  |  |  |  | 
12 | O=NN1C(c2ccccc2)CNC(=O)CC1c1ccccc1 (stereo not given) | > 100 | > 100 µM | > 100 µM | > 100 µM | > 100 µM |  | > 100 µM | > 89 |  | > 64.6 |  | 81.1 |  |  |  |  |  |  | 
13 | FC(F)(F)c1ccc2c(c1)N(CCCNCCN1CCOCC1)c1ccccc1S2 | 27.1 | 28.3 µM |  | 26.9 µM | 7.15 µM | 25.4 µM | 19.5 µM |  |  |  |  | 9.11 |  |  |  |  |  |  | 
14 | Cc1c(O)c(=O)ccn1CCN |  | > 100 µM | > 100 µM | > 100 µM | > 100 µM | > 100 µM | > 100 µM | > 100 |  |  |  | > 100 |  |  |  |  |  |  | 
15 | CC(CSC(=N)N)C(N)=O (stereo not given) | > 100 | > 100 µM | > 100 µM | > 100 µM | > 100 µM | > 100 µM | > 100 µM | > 100 | > 100 µM | > 100 | > 100 µM | > 100 |  |  |  |  |  |  | 
16 | S=c1sc2c(s1)SC(c1ccccc1)CS2 (stereo not given) | > 100 | > 100 µM | > 100 µM | > 100 µM | > 100 µM |  | > 100 µM | > 100 |  | > 100 |  | 91.5 |  |  |  |  |  |  | 
17 | COc1ccccc1/C=C(/C)[N+](=O)[O-] | > 100 | 8.66 µM and 5.18 µM | 4.85 µM and 1.92 µM | 4.96 µM and 4.41 µM | 5.72 µM and 3.97 µM | 13 µM and 4.21 µM | 7.43 µM and 5.11 µM |  | 4.64 µM and 3.37 µM | 8.69 | 9.18 µM and 3.64 µM | 4.74 | 2.13 µM and 0.687 µM |  |  |  |  |  | 1.74
18 | Brc1ccc(C2C3CSc4ccccc4C3=NN2c2ccccc2)cc1 (stereo not given) | > 100 | > 100 µM | > 100 µM | > 100 µM | > 100 µM | > 100 µM | > 100 µM | > 100 | 86.3 µM | > 100 | > 100 µM | > 100 |  |  |  |  |  |  | 
19 | O=C(NN1C(=O)C(Cl)C1c1ccccc1O)c1ccccc1O (stereo not given) | > 100 | > 100 µM |  | > 100 µM | > 100 µM | > 100 µM |  | > 100 |  |  |  | > 100 |  |  |  |  |  |  | 
20 | COc1cc(OC2OC(CO)C(O)C(O)C2O)c2c(O)c3c(=O)cc(C)oc3cc2c1 (stereo not given) | > 100 | > 100 µM | > 100 µM |  | > 100 µM | > 100 µM | > 100 µM | > 100 | > 100 µM |  | > 100 µM |  |  |  |  |  |  |  | 
21 | Cc1ccc(/C=C2\Sc3scc(-c4ccccc4)[n+]3C2=O)cc1 | > 100 | > 84.3 µM | 33.4 µM | > 54.2 µM |  | 53.1 µM | 50.8 µM | > 67.6 | > 100 µM | > 58 | > 44.3 µM | 90.2 |  |  |  |  |  |  | 
22 | OCC#CCNCl | > 100 | > 100 µM |  | > 100 µM | > 100 µM |  | > 100 µM | > 100 |  | > 100 |  | > 100 |  |  |  |  |  |  | 
23 | CC(C)(O)/C1=C/C=C/CCCCCCCCCC1 | > 100 |  | > 100 µM | > 100 µM | > 100 µM | > 100 µM | > 100 µM | > 100 | > 100 µM | > 100 | > 100 µM |  |  |  |  |  |  |  | 
24 | O=[N+]([O-])C(=C/c1ccccc1)/C(=C\c1ccccc1)[N+](=O)[O-] | 40 | 78.8 µM | 29 µM | 49.4 µM |  | 29.6 µM |  | 48.2 | 48.2 µM | 42.8 | 30.3 µM | 33.5 |  |  |  |  |  |  | 
